Laboratory results as given in patent US20150175556A1, “DIHYDROPYRIMIDIN-2(1H)-ONES AND DIHYDROPYRIMIDIN-2(1H)-THIONES AS INHIBITORS OF SODIUM IODIDE SYMPORTER” (COMMISSARIAT A L'ENERGIE ATOMIQUE ET AUX ENERGIES …, priority 2012, published 2015).
pIC50: −log10 of the molar value. Where two headings read alike, the source gives them in different places.

Key:
[1] = biological target: T1, sodium iodide symporter (NIS), iodide uptake in FRTL5 cells (Rattus norvegicus, UniProt Q63008); assay: Inhibition of iodide uptake in FRTL5 cells, non radioactive arsenic/cerium assay; type: cell-based; details: for IC50: NaI 10 μM, 1 hour, 20°C, read-out: IC50 (μM), inhibitory activity against iodide uptake in FRTL5 cells
T1 construct: endogenous in cells; host or cells: FRTL5 (rat thyroid-derived cells)
T1 sequence (Q63008 1-618): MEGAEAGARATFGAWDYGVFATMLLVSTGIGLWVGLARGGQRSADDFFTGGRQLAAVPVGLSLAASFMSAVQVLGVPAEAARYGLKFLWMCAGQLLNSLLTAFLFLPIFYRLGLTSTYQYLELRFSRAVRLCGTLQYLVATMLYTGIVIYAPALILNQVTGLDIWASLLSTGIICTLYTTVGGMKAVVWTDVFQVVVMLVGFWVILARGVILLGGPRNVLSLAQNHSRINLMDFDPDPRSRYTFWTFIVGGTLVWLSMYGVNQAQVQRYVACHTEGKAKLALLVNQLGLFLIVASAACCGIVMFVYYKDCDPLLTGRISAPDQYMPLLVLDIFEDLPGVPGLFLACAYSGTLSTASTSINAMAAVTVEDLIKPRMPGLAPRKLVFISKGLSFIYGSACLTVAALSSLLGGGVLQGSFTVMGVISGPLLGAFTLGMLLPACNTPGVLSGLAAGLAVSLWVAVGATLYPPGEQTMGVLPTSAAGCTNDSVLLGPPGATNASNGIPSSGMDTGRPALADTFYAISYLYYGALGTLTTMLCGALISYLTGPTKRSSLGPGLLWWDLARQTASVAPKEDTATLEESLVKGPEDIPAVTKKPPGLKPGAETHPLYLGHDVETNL
Method: Some of the synthesized compounds were evaluated for their ability to inhibit iodide entrapment in FRTL5 cells. The IC50 values were measured in at least […] independent experiments.
The biological activity of each compound was determined in FRTL5 cells, using a non radioactive arsenic/cerium assay as described in F. Waltz et al., Anal. Biochem., 2012, 396, 91-95. Compound potency was expressed as IC50, the concentration of compound necessary to achieve 50% inhibition of iodide uptake. Briefly, to FRTL5 cells at 70-90% confluence was added compound (200 μM, 10 μM, 0.5 μM, 25 nM, 1.2 nM, 60 pM, […], and 0.15 pM final), followed by NaI (10 μM final). After 1 hour incubation at 20±1° C., supernatant was removed and the cells were immediately assayed for iodide content using the modified As/Ce Sandell-Kolthoff reaction. NaClO4 was tested in each microplate as assay controls. The IC50 values of all compounds were measured least thrice independently.
Stock solutions of tested compounds were prepared in DMSO (20 mM) and that of NaClO4 in water (20 mM). These stock solutions were stored at 4° C. for up to 2 months. Sample dilutions: the day of the assay, a daughter plate (clear flat-bottomed 96-well polystyrene microplates, Costar 9017) was prepared from 20 mM stock solutions. NaClO4 (column 2) and DHPM samples (columns 4 to 11) were diluted at 10× the final concentration in uptake buffer.
FRTL5 cells were cultured as described in F. S. Ambesi-Impiombato et al., Proc. Natl. Acad. Sci. USA, 1980, 77, 3455-3459. Briefly, FRTL5 cells were cultured in Coon's modified F12 medium supplemented with 5% heat-inactivated fetal bovine serum (Invitrogen), 2 mM L-glutamine, 100 U/mL penicillin, 0.1 mg/mL streptomycin, 10 μg/mL insulin, 10 nM hydrocortisone, 10 ng/mL Gly-His-Lys acetate, 1 mU/mL TSH, 5 μg/mL transferrin at 37° C. and 5% CO2. For iodide uptake assays, 200 μL of FRTL5 cells with density of 250,000 cells/mL were dispensed in each well of clear flat-bottomed 96-well polystyrene microplates (Costar 3628) using the Multidrop 384 (ThermoFisher Scientific), and further cultured until confluence reached 80-90% (3-4 days).
The culture medium of FRTL5 monolayer cells at 80-90% confluence was replaced by uptake buffer (20° C.) via continuous aspiration/dispense cycle (600 μL) using a 96-needle head plate washer PW 384 (Tecan). The 96-needle head was set to a vertical position such that 80 μL of fresh uptake buffer remained in each well at the end of the cycle. The samples (10 μL each) from the daughter plate were transferred all at once to the assay plate using the 96-tip head pipettor Liquidator 96 (Mettler Toledo). Immediately after, 10 μL of a NaI solution at 100 μM was added to each well of the assay plate using the Liquidator 96. The assay plate was left to stand in the dark at 20±1° C. for 60 min. The assay plate was then washed with cold (4° C.) uptake buffer using the PW 384 plate washer and residual supernatant was immediately discarded by inverting the assay plate on absorbent paper.
Sodium iodide standards (S1 to S7) and water (S0) were distributed in duplicate (100 μL each) in the first and last column of the assay plate. Water (100 μL) was added to the columns with the Multidrop 384. 100 μL of the ammonium cerium (IV) sulfate solution (10.5 mM) was distributed into the columns, followed by 100 μL of the sodium arsenite (III) solution (24 mM) using the Multidrop 384. The assay plate was left to stand at 20±1° C. for 30 min. The absorbance at 420 nm (Abs420) was immediately recorded on a SpectraMax Plus 384 (Molecular Devices). A calibration curve was prepared for each plate by plotting the logarithmic conversion of the means of Abs420 (n=2) vs iodide standard concentrations (S0 to S7). The iodide concentrations in the samples were determined after linear regression of the calibration curve.

[2] = Table 1, variations at R1, averaged from three or four independent experiments
[3] = Table 2, variations at R5, averaged from three or four independent experiments
[4] = Table 3, variations at R2, averaged from three or four independent experiments
[5] = Table 5, variations at Y, R1, R3, R4, R5, averaged from two to four independent experiments

Compound	IC50 [1, 2] [nM]	melting point [°C]	other results
COc1ccc(COC(=O)C2=C(C)NC(=O)NC2C2CC2)cc1 (centres unmarked) [Compound 26, 4-Methoxybenzyl 4-cyclopropyl-6-methyl-2-oxo-1,2,3,4-tetrahydropyrimidine-5-carboxylate]	750	158 to 160	–
COc1cccc(COC(=O)C2=C(C)NC(=O)NC2c2ccccc2)c1 (centres unmarked) [Compound 37, 3-Methoxybenzyl 6-methyl-2-oxo-4-phenyl-1,2,3,4-tetrahydropyrimidine-5-carboxylate]	–	–	IC50 [1, 3]: 50 nM
CC1=C(C(=O)OCc2ccc3c(c2)OCO3)C(c2ccccc2)NC(=O)N1 (centres unmarked) [Compound 38, Benzo[d][1,3]dioxol-5-ylmethyl 6-methyl-2-oxo-4-phenyl-1,2,3,4-tetrahydropyrimidine-5-carboxylate]	–	–	IC50 [1, 3]: 80 nM
COc1ccc(COC(=O)C2=C(CC(C)C)NC(=O)NC2c2ccccc2)cc1 (centres unmarked) [Compound 41, 4-Methoxybenzyl 2-oxo-6-isobutyl-4-phenyl-1,2,3,4-tetrahydropyrimidine-5-carboxylate]	–	–	IC50 [1, 4]: 550 nM
CCCCCC1=C(C(=O)OCc2ccc(OC)cc2)C(c2ccccc2)NC(=O)N1 (centres unmarked) [Compound 42, 4-Methoxybenzyl 2-oxo-6-pentyl-4-phenyl-1,2,3,4-tetrahydropyrimidine-5-carboxylate]	–	–	IC50 [1, 4]: 350 nM
COc1ccc(COC(=O)C2=C(C3CCCCC3)NC(=O)NC2c2ccccc2)cc1 (centres unmarked) [Compound 43, 4-Methoxybenzyl 6-cyclohexyl-2-oxo-4-phenyl-1,2,3,4-tetrahydropyrimidine-5-carboxylate]	–	–	IC50 [1, 4]: 850 nM
COc1ccc(COC(=O)C2=C(c3ccccc3)NC(=O)NC2c2ccccc2)cc1 (centres unmarked) [Compound 44, 4-Methoxybenzyl 4,6-diphenyl-2-oxo-1,2,3,4-tetrahydropyrimidine-5-carboxylate]	–	–	IC50 [1, 4]: 950 nM
COc1ccc(COC(=O)C2=C(COc3ccccc3)NC(=O)NC2c2ccccc2)cc1 (centres unmarked) [Compound 46, 4-Methoxybenzyl 2-oxo-6-phenoxymethyl-4-phenyl-1,2,3,4-tetrahydropyrimidine-5-carboxylate]	–	–	IC50 [1, 4]: 500 nM
COc1ccc(COC(=O)C2=C(Cc3cccs3)NC(=O)NC2c2ccccc2)cc1 (centres unmarked) [Compound 49, 4-Methoxybenzyl 2-oxo-4-phenyl-6-(thiophen-2-ylmethyl)-1,2,3,4-tetrahydropyrimidine-5-carboxylate]	–	–	IC50 [1, 4]: 150 nM
COc1ccc(COC(=O)C2=C(C)N(C)C(=O)N(C)C2c2ccccc2)cc1 (centres unmarked) [Compound 51, 4-Methoxybenzyl 1,3,6-trimethyl-2-oxo-4-phenyl-1,2,3,4-tetrahydropyrimidine-5-carboxylate]	–	–	IC50 ([1]; Table 4, variations at X, R3, R4, averaged from three or four independent experiments): 65 nM
COc1ccc(COC(=O)C2=C(C)N(C)C(=O)N(C)C2c2ccco2)cc1 (centres unmarked) [Compound 54, 4-methoxybenzyl 4-(furan-2-yl)-1,3,6-trimethyl-2-oxo-1,2,3,4-tetrahydropyrimidine-5-carboxylate]	–	–	IC50 [1, 5]: 1.6 nM
COc1cccc(COC(=O)C2=C(C)N(C)C(=O)N(C)C2c2ccco2)c1 (centres unmarked) [Compound 57, 3-methoxybenzyl 4-(furan-2-yl)-1,3,6-trimethyl-2-oxo-1,2,3,4-tetrahydropyrimidine-5-carboxylate]	–	–	IC50 [1, 5]: 0.065 nM
CC1=C(C(=O)OCc2ccc3c(c2)OCO3)C(c2ccco2)N(C)C(=O)N1C (centres unmarked) [Compound 61, benzo[d][1,3]dioxol-5-ylmethyl 4-(furan-2-yl)-1,3,6-trimethyl-2-oxo-1,2,3,4-tetrahydropyrimidine-5-carboxylate]	–	–	IC50 [1, 5]: 0.85 nM
[O-][Cl+3]([O-])([O-])O [Sodium perchlorate, reference compound]	–	–	pIC50 ([1]; assay control, read-out: IC50, iodide entrapment in FRTL5 cells, assay control): 7.00

Further lines, with some results ahead:

IC50 [1, 2] [nM]	melting point [°C]	Compound	other results
350	164 to 166	COc1ccc(COC(=O)C2=C(C)NC(=O)NC2c2cccc(Br)c2)cc1 (centres unmarked) [Compound 21, 4-Methoxybenzyl 4-(3-bromophenyl)-6-methyl-2-oxo-1,2,3,4-tetrahydropyrimidine-5-carboxylate]	–
100	180 to 181	COc1ccc(COC(=O)C2=C(C)NC(=O)NC2c2cccc(Cl)c2)cc1 (centres unmarked) [Compound 22, 4-Methoxybenzyl 4-(3-chlorophenyl)-6-methyl-2-oxo-1,2,3,4-tetrahydropyrimidine-5-carboxylate]	–
65	181 to 183	COc1ccc(COC(=O)C2=C(C)NC(=O)NC2c2ccccc2F)cc1 (centres unmarked) [Compound 23, 4-Methoxybenzyl 4-(2-fluorophenyl)-6-methyl-2-oxo-1,2,3,4-tetrahydropyrimidine-5-carboxylate]	–
75	173 to 174	COc1ccc(COC(=O)C2=C(C)NC(=O)NC2c2cccc(F)c2)cc1 (centres unmarked) [Compound 24, 4-Methoxybenzyl 4-(3-fluorophenyl)-6-methyl-2-oxo-1,2,3,4-tetrahydropyrimidine-5-carboxylate]	–
150	172 to 175	COc1ccc(COC(=O)C2=C(C)NC(=O)NC2c2ccc(F)cc2)cc1 (centres unmarked) [Compound 25, 4-Methoxybenzyl 4-(4-fluorophenyl)-6-methyl-2-oxo-1,2,3,4-tetrahydropyrimidine-5-carboxylate]	–
3.2	158 to 159	COc1ccc(COC(=O)C2=C(C)NC(=O)NC2c2ccco2)cc1 (centres unmarked) [Compound 27, 4-methoxybenzyl 4-(furan-2-yl)-6-methyl-2-oxo-1,2,3,4-tetrahydropyrimidine-5-carboxylate]	–
20	157 to 159	COc1ccc(COC(=O)C2=C(C)NC(=O)NC2c2ccoc2)cc1 (centres unmarked) [Compound 28, 4-Methoxybenzyl 4-(furan-3-yl)-6-methyl-2-oxo-1,2,3,4-tetrahydropyrimidine-5-carboxylate]	–
